Assay results taken from PubChem BioAssay (NCI).
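Cells were grown in 96-well plates and exposed to each compound for 48 hours at five concentrations; endpoints were interpolated linearly between bracketing concentrations, or set to the highest concentration if not reached. At the TGI there is no net growth.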

What was measured:
Assay in all cases: growth of human tumour cells (NCI), 48 h
786-0 renal = tested on: 786-0 renal
A498 renal = tested on: A498 renal
A549 NSCLC = tested on: A549 NSCLC
ACHN renal = tested on: ACHN renal
BT-549 breast = tested on: BT-549 breast
CAKI-1 renal = tested on: CAKI-1 renal
CCRF-CEM leukemia = tested on: CCRF-CEM leukemia
COLO 205 colon = tested on: COLO 205 colon
DU-145 prostate = tested on: DU-145 prostate
EKVX NSCLC = tested on: EKVX NSCLC
HCC-2998 colon = tested on: HCC-2998 colon
HCT-116 colon = tested on: HCT-116 colon
HL-60(TB) leukemia = tested on: HL-60(TB) leukemia
HOP-92 NSCLC = tested on: HOP-92 NSCLC
HS 578T breast = tested on: HS 578T breast
HT29 colon = tested on: HT29 colon
IGROV1 ovarian = tested on: IGROV1 ovarian
K-562 leukemia = tested on: K-562 leukemia
KM12 colon = tested on: KM12 colon
LOX IMVI melanoma = tested on: LOX IMVI melanoma
M14 melanoma = tested on: M14 melanoma
MALME-3M melanoma = tested on: MALME-3M melanoma
MCF7 breast = tested on: MCF7 breast
MDA-MB-231 breast = tested on: MDA-MB-231 breast
MDA-MB-435 = tested on: MDA-MB-435
MDA-N = tested on: MDA-N
MOLT-4 leukemia = tested on: MOLT-4 leukemia
NCI-H226 lung = tested on: NCI-H226 lung
NCI-H23 lung = tested on: NCI-H23 lung
NCI-H460 lung = tested on: NCI-H460 lung
NCI-H522 lung = tested on: NCI-H522 lung
NCI/ADR-RES ovarian = tested on: NCI/ADR-RES ovarian
OVCAR-3 ovarian = tested on: OVCAR-3 ovarian
OVCAR-4 ovarian = tested on: OVCAR-4 ovarian
OVCAR-8 ovarian = tested on: OVCAR-8 ovarian
PC-3 prostate = tested on: PC-3 prostate
RPMI-8226 leukemia = tested on: RPMI-8226 leukemia
SF-268 CNS = tested on: SF-268 CNS
SF-295 CNS = tested on: SF-295 CNS
SF-539 CNS = tested on: SF-539 CNS
SK-MEL-2 melanoma = tested on: SK-MEL-2 melanoma
SK-MEL-28 melanoma = tested on: SK-MEL-28 melanoma
SK-MEL-5 melanoma = tested on: SK-MEL-5 melanoma
SK-OV-3 ovarian = tested on: SK-OV-3 ovarian
SN12C renal = tested on: SN12C renal
SNB-19 CNS = tested on: SNB-19 CNS
SR leukemia = tested on: SR leukemia
SW-620 colon = tested on: SW-620 colon
T-47D breast = tested on: T-47D breast
TK-10 renal = tested on: TK-10 renal
U251 CNS = tested on: U251 CNS
UACC-257 melanoma = tested on: UACC-257 melanoma
UACC-62 melanoma = tested on: UACC-62 melanoma
UO-31 renal = tested on: UO-31 renal

O=C(CC(=O)Nc1ccc(C(=O)O)cc1)Nc1ccc(C(=O)O)cc1
TGI (786-0 renal): > 100 µM
TGI (A498 renal): > 100 µM
TGI (A549 NSCLC): > 100 µM
TGI (ACHN renal): > 100 µM
TGI (BT-549 breast): > 100 µM
TGI (CAKI-1 renal): > 100 µM
TGI (CCRF-CEM leukemia): > 100 µM
TGI (COLO 205 colon): > 100 µM
TGI (DU-145 prostate): > 100 µM
TGI (EKVX NSCLC): > 100 µM
TGI (HCC-2998 colon): > 100 µM
TGI (HCT-116 colon): > 100 µM
TGI (HL-60(TB) leukemia): > 100 µM
TGI (HOP-92 NSCLC): > 100 µM
TGI (HS 578T breast): > 100 µM
TGI (HT29 colon): > 100 µM
TGI (IGROV1 ovarian): > 100 µM
TGI (K-562 leukemia): > 100 µM
TGI (KM12 colon): > 100 µM
TGI (LOX IMVI melanoma): > 100 µM
TGI (M14 melanoma): > 100 µM
TGI (MALME-3M melanoma): > 100 µM
TGI (MCF7 breast): > 100 µM
TGI (MDA-MB-231 breast): > 100 µM
TGI (MDA-MB-435): > 100 µM
TGI (MDA-N): > 100 µM
TGI (MOLT-4 leukemia): > 100 µM
TGI (NCI-H226 lung): > 100 µM
TGI (NCI-H23 lung): > 100 µM
TGI (NCI-H460 lung): > 100 µM
TGI (NCI-H522 lung): > 100 µM
TGI (NCI/ADR-RES ovarian): > 100 µM
TGI (OVCAR-3 ovarian): > 100 µM
TGI (OVCAR-4 ovarian): > 100 µM
TGI (OVCAR-8 ovarian): > 100 µM
TGI (PC-3 prostate): > 100 µM
TGI (RPMI-8226 leukemia): > 100 µM
TGI (SF-268 CNS): > 100 µM
TGI (SF-295 CNS): > 100 µM
TGI (SF-539 CNS): > 100 µM
TGI (SK-MEL-2 melanoma): 40 µM
TGI (SK-MEL-28 melanoma): > 100 µM
TGI (SK-MEL-5 melanoma): > 100 µM
TGI (SK-OV-3 ovarian): > 100 µM
TGI (SN12C renal): > 100 µM
TGI (SNB-19 CNS): > 100 µM
TGI (SR leukemia): > 100 µM
TGI (SW-620 colon): > 100 µM
TGI (T-47D breast): > 100 µM
TGI (TK-10 renal): > 100 µM
TGI (U251 CNS): > 100 µM
TGI (UACC-257 melanoma): > 100 µM
TGI (UACC-62 melanoma): > 100 µM
TGI (UO-31 renal): > 100 µM
